Results: patent US7612079B2, “2,6,9-substituted purine derivatives and their use in the treatment of proliferative disorders” (Cyclacel Limited, priority 2001, dated 2009)

Legend:
A549, HT29, Saos-2 = assay: In vitro anti-proliferative activity, 72-h MTT, A549, HT29, Saos-2; assay type: cell-based; conditions: read-out: In vitro anti-proliferative activity (72-h MTT IC50), Cell lines: A549, HT29, Saos-2
CDK7/cyclin H = CDK7/cyclin H (Homo sapiens, UniProt P50613); assay: CDK7/cyclin H kinase inhibition; assay type: biochemical; conditions: Table 2
CDK7/cyclin H, sequence (P50613 whole entry, species assumed): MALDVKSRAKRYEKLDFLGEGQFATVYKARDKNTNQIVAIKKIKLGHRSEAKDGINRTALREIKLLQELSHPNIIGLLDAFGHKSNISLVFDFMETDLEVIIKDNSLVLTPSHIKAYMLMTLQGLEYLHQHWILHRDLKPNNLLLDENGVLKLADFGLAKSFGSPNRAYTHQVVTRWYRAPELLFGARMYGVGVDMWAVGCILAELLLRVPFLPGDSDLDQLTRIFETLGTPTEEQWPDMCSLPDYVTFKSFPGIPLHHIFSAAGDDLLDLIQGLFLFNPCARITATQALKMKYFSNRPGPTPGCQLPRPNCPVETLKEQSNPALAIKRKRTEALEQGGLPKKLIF
CDK7/cyclin H, sequence (P51946 whole entry partner, species assumed): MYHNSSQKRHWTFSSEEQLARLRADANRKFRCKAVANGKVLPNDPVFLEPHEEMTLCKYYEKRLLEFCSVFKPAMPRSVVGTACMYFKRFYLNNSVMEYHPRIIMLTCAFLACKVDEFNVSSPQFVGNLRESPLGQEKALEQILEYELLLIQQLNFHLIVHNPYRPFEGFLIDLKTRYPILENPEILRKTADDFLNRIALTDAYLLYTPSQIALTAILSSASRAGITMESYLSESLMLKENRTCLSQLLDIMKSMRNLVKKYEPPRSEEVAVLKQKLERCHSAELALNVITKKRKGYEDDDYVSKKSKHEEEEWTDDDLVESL

CDK4/cyclin D1 = CDK4/cyclin D1 (Homo sapiens, UniProt P11802); assay: CDK4/cyclin D1 kinase assay (GST-Rb phosphorylation); assay type: biochemical; conditions: Table 2; read-out: Kinase inhibition CDK4/cyclin D1 IC50
CDK4/cyclin D1, sequence (P11802 whole entry, species assumed): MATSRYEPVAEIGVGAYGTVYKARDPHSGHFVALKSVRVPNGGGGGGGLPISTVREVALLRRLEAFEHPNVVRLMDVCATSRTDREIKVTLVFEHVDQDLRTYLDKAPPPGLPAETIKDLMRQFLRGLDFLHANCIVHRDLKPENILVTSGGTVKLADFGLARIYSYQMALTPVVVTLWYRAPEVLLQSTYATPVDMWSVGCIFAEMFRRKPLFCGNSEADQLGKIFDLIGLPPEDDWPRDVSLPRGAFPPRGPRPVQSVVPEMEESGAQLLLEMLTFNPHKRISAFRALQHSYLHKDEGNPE
CDK4/cyclin D1, sequence (P24385 whole entry partner, species assumed): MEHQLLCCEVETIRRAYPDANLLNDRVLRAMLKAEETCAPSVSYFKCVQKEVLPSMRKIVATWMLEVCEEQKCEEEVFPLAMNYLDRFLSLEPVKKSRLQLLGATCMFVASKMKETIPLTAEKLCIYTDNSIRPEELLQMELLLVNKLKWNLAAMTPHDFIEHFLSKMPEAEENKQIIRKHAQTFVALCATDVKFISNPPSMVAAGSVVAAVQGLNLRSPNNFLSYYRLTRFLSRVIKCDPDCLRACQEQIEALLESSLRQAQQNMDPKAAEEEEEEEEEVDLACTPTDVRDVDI
Experimental: Assays for CDK2/cyclin E kinase, CDK1/cyclin B and CDK4/cyclin D1 may be carried out by monitoring phosphorylation of GST-Rb in an appropriate system. […] The phosphorylation reaction mixture (total volume 40 μl) consisted of 50 mM HEPES pH 7.4, 20 mM MgCl2, 5 mM EGTA, 2 mM DTT, 20 mM β-glycerophosphate, 2 mM NaF, 1 mM Na3VO4, Protease Inhibitors Cocktail (Sigma, see above), BSA 0.5 mg/ml, 1 μg purified enzyme complex, 10 μl of GST-Rb-Sepharose-beads, 100 μM ATP, 0.2 μCi ^32P-ATP. The reaction is carried out for 30 min at 30° C. at constant shaking. At the end of this period 100 μl of 50 mM HEPES, pH 7.4 and 1 mM ATP is added to each well and the total volume transferred onto GFC filtered plate. The plate is washed 5 times with 200 μl of 50 mM HEPES, pH 7.4 and 1 mM ATP. To each well was added 50 μl scintillant liquid and the radioactivity of the samples is measured on Scintilation counter (Topcount, HP). The IC50 values of different peptides were calculated using GraFit software.

CH1 = assay: 72-h MTT proliferation assay, CH1; assay type: cell-based; conditions: Homo sapiens, read-out: IC50 Cell line CH1
From the text: (§1) Selected compounds from the above examples were subjected to a standard cellular proliferation assay using seven different human tumour cell lines: A2780, A278CisF, CH1, CH1DoxR, HCT116, HT29 and KM12. […] Human tumour cell lines were obtained from the ATCC (American Type Culture Collection, 10801 University Boulevard, Manessas, Va. 20110-2209, USA). The results are shown in Table 1, together with the average IC50 over the seven different cell lines.

A2780 CisR = assay: 72-h MTT proliferation assay, A2780 CisR; assay type: cell-based; conditions: Homo sapiens, A2780cisR, read-out: IC50 Cell line A2780 CisR
From the text: as §1

A2780 = assay: 72-h MTT proliferation assay, A2780; assay type: cell-based; conditions: Homo sapiens, read-out: IC50 Cell line A2780
From the text: as §1

Aqueous solubility = assay type: physicochemical; conditions: remark in Table 1; versus Roscovitine
From the text: […]. […] […]

HT29 = assay: 72-h MTT proliferation assay, HT29; assay type: cell-based; conditions: Homo sapiens, HT-29, read-out: IC50 Cell line HT29
From the text: as §1

[1] = test system: seven different human tumour cell lines: A2780, A278CisF, CH1, CH1DoxR, HCT116, HT29 and KM12; assay: 72-h MTT proliferation assay, average over seven cell lines; assay type: cell-based; conditions: read-out: IC50 Cell line Average
From the text: Selected compounds from the above examples were subjected to a standard cellular proliferation assay using seven different human tumour cell lines: A2780, A278CisF, CH1, CH1DoxR, HCT116, HT29 and KM12.

[2] = molecular target: T1, cyclic AMP-dependent kinase (PKA) catalytic subunit (Homo sapiens, UniProt P17612); assay: PKA kinase assay (Kemptide phosphorylation); assay type: biochemical; conditions: Table 2; read-out: Kinase inhibition PKA IC50
T1 construct: purchased Calbiochem 539487
Experimental: The reaction mixture (total volume 50 μl) consisted of 20 mM MOPS, pH 7.2, 25 mM β-glycerophosphate, 5 mM EGTA, 1 mM DTT, 1 mM Na3VO4, 10 mM MgCl2, 100 μM ATP, 0.2 μCi [γ-^32P]-ATP.

KM12 = assay: 72-h MTT proliferation assay, KM12; assay type: cell-based; conditions: Homo sapiens, read-out: IC50 Cell line KM12
From the text: as §1

CH1DoxR = assay: 72-h MTT proliferation assay, CH1DoxR; assay type: cell-based; conditions: Homo sapiens, read-out: IC50 Cell line CH1DoxR
From the text: as §1

HCT116 = assay: 72-h MTT proliferation assay, HCT116; assay type: cell-based; conditions: Homo sapiens, HCT-116, read-out: IC50 Cell line HCT116
From the text: as §1

[3] = Pharmacokinetic analysis in mice
mouse ERK-2 = molecular target: T2, mouse ERK-2 (Mus musculus, UniProt P63085); assay: ERK-2 kinase assay (MBP phosphorylation); assay type: biochemical; conditions: Table 2; read-out: Kinase inhibition ERK2 IC50
T2 construct: purchased Upstate Biotechnologies
T2 sequence (P63085 whole entry): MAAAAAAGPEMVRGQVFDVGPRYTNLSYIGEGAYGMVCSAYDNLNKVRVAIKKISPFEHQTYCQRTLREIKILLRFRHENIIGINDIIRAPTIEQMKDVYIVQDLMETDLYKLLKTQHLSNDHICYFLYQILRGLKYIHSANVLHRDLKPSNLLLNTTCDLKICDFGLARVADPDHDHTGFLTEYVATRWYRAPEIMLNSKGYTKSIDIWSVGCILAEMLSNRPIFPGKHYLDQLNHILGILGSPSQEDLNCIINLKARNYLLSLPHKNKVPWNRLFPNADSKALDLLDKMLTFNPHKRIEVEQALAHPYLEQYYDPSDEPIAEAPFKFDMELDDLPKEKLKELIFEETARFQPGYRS
Experimental: ERK-2 kinase activity was measured by the incorporation of radioactive phosphate into myelin basic protein (MBP), catalysed by purified mouse ERK-2 (Upstate Biotechnologies). The reaction mixture (total volume 50 μL) consisted of 20 mM MOPS, pH 7.0,25 mM β-glycerophosphate, 5 mM EGTA, 1 mM DTT, 1 mM Na3VO4, 10 mM MgCl2, 100 μM ATP, 0.2 μCi [γ-^32P]-ATP.

Structure (SMILES) | IC50 (A549, HT29, Saos-2) | IC50 (CDK7/cyclin H) | IC50 (CDK4/cyclin D1) | IC50 (CH1) | melting point | IC50 (A2780 CisR) | IC50 (A2780) | PK remark: aqueous solubility (Aqueous solubility) | IC50 (HT29) | IC50 [1] | IC50 [2] | IC50 (KM12) | IC50 (CH1DoxR) | IC50 (HCT116) | AUC ([3]; mice, comparative value) | half-life ([3]; mouse, in vivo) | IC50 (mouse ERK-2)
CC[C@H](CO)Nc1nc(NCc2ccncc2)c2ncn(C(C)C)c2n1 [Example 6, (R)-2-{9-Isopropyl-6-[(pyridin-4-ylmethyl)-amino]-9H-purin-2-ylamino}-butan-1-ol] | 17 µM | 0.74 µM | 30 µM | 8.2 µM | 105 to 106 °C | 22 µM | 23 µM | Improved aqueous solubility | 23 µM | 17.3 µM | > 50 µM | 7 µM | 28 µM | 10 µM | – | – | –
CC[C@H](CO)Nc1nc(NCc2ccccc2)c2ncn(C(C)C)c2n1 [Roscovitine] | – | – | – | – | – | – | – | – | – | – | – | – | – | – | 75454 nh-h/mL | 2.7 h | –
CC[C@H](CO)Nc1nc(NCc2ccccn2)c2ncn(C(C)C)c2n1 [Example 5, (R)-2-{9-Isopropyl-6-[(pyridin-2:ylmethyl)-amino]-9H-purin-2:ylamino}-butan-1-ol] | 4.5 µM | – | – | 26 µM | 30 to 35 °C | 28 µM | 22 µM | Improved aqueous solubility | 54 µM | 31 µM | > 50 µM | 38 µM | 23 µM | 26 µM | – | – | 9.5 µM
